Data set [1] has as its system HBV. Put plainly: Anti-viral assay in HepG2.2.15 cells: HBV inhibitory activity (HBV DNA in culture medium by q-PCR). In kind it is cell-based. The following applies: Hepatitis B virus, HepG2.2.15, 144 h, HepG2.2.15 cells, 6 days treatment, HBV DNA in culture medium by q-PCR, highest concentration 10 uM; read-out: EC50. In outline:
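HBV DNA released into the medium was measured by q-PCR after 6-day compound exposure of HepG2.2.15 cells (40,000/well, 2% FBS, one mid-course medium change). Eight 3-fold dilutions, highest 10 uM; EC50 derived by curve fitting.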

Data set [2] can be described thus: Cytotoxicity determination in HepG2.2.15 cells (CCK-8). Format: cell-based. The following applies: human, 6 days treatment, CCK-8, highest concentration 100 uM. The method, boiled down: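 CC50 derived from CCK-8 absorbance (450 nm, 630 nm reference) after 2.5 h incubation at 37 °C. Before that, HepG2.2.15 cells (5,000/well, 2% FBS) received an 8-point, 3-fold compound series topping at 100 uM for 6 days, with one mid-treatment medium change.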

As usually defined, the EC50 is the concentration at which the effect is half-maximal. By CC50 is commonly meant the concentration giving 50% cytotoxicity.

In the case of `CCOC(=O)C1=C(C2CN(c3nc(C(=O)O)co3)C2)NC(c2nccs2)=NC1c1ccc(F)c(F)c1Cl` (single isomer, unassigned) [II-86-B, 2-(3-(6-(2-Chloro-3,4-difluorophenyl)-5-(ethoxycarbonyl)-2-(thiazol-2-yl)-3,6-dihydropyrimidin-4-yl)azetidin-1-yl)oxazole-4-carboxylic Acid], the concentration for a half-maximal effect (EC50) in data set [1] is 2.87 µM. Moreover, in data set [2], the CC50 at 6 days worked out at 9.4 µM.

On to `COC(=O)C1=C(C2CN(C(=O)c3ccccc3)C2)NC(c2nccs2)=NC1c1ccc(F)cc1Cl` (single isomer, unassigned) [II-87-A, Methyl 6-(1-benzoylazetidin-3-yl)-4-(2-chloro-4-fluorophenyl)-2-(thiazol-2-yl)-1,4-dihydropyrimidine-5-carboxylate], for which the EC50 in data set [1] was 4.02 µM. The compound also registered a CC50 at 6 days in data set [2] of 9.86 µM.

`COC(=O)C1=C(C2CN(C(=O)c3cnoc3C)C2)NC(c2nccs2)=NC1c1ccc(F)cc1Cl` (single isomer, unassigned) [II-88-B, methyl 4-(2-chloro-4-fluorophenyl)-6-(1-(5-methylisoxazole-4-carbonyl)azetidin-3-yl)-2-(thiazol-2-yl)-1,4-dihydropyrimidine-5-carboxylate]: in data set [1], the EC50 stood at 2.05 µM. The CC50 at 6 days in data set [2] came out at 9.96 µM.

Regarding `COC(=O)C1=C(C2CCN(c3cc(C(=O)O)c(C)cn3)CC2)NC(c2nccs2)=NC1c1ccc(F)cc1Cl` (single isomer, unassigned) [II-89-B, 2-(4-(6-(2-Chloro-4-fluorophenyl)-5-(methoxycarbonyl)-2-(thiazol-2-yl)-3,6-dihydropyrimidin-4-yl)piperidin-1-yl)-5-methylisonicotinic Acid], the EC50 in data set [1] was 0.009 µM. In data set [2], this compound had a CC50 at 6 days of 20.3 µM.

As to `COC(=O)C1=C(C2CCN(c3ncc(N4CCC(C(=O)O)CC4)cn3)CC2)NC(c2nccs2)=NC1c1ccc(F)cc1Cl` (single isomer, unassigned) [II-90-B, 1-(2-(4-(6-(2-chloro-4-fluorophenyl)-5-(methoxycarbonyl)-2-(thiazol-2-yl)-3,6-dihydropyrimidin-4-yl)piperidin-1-yl)pyrimidin-5-yl)piperidine-4-carboxylic acid], in data set [1], the EC50 was found to be 0.0054 µM. For the same compound, half-maximal cytotoxicity in data set [2] (CC50 at 6 days) was put at 19 µM.

Take `COC(=O)C1=C(C2CCN(c3ncc(N(C)C)c(C(=O)O)n3)CC2)NC(c2nccs2)=NC1c1ccc(F)c(F)c1Cl` (single isomer, unassigned) [II-91-B, 2-(4-(6-(2-chloro-3,4-difluorophenyl)-5-(methoxycarbonyl)-2-(thiazol-2-yl)-3,6-dihydropyrimidin-4-yl)piperidin-1-yl)-5-(dimethylamino)pyrimidine-4-carboxylic Acid]: in data set [1], the EC50 was determined as 0.012 µM. Also, in data set [2], it took 26.1 µM to reach half-maximal cytotoxicity (CC50 at 6 days).

For the compound `COC(=O)C1=C(C2CCN(c3ncc(N)c(C(=O)O)n3)CC2)NC(c2nccs2)=NC1c1ccc(F)c(F)c1Cl` (single isomer, unassigned) [II-92-B, 5-amino-2-(4-(6-(2-chloro-3,4-difluorophenyl)-5-(methoxycarbonyl)-2-(thiazol-2-yl)-3,6-dihydropyrimidin-4-yl)piperidin-1-yl)pyrimidine-4-carboxylic Acid], in data set [1], the EC50 amounted to 0.007 µM. Further, the CC50 at 6 days in data set [2] was 18.3 µM.

As to `COC(=O)C1=C(C2CCN(c3cc(C(=O)O)c(N(C)C)cn3)CC2)NC(c2nccs2)=NC1c1ccc(F)c(F)c1Cl` (single isomer, unassigned) [II-93-B, 2-(4-(6-(2-chloro-3,4-difluorophenyl)-5-(methoxycarbonyl)-2-(thiazol-2-yl)-3,6-dihydropyrimidin-4-yl)piperidin-1-yl)-5-(dimethylamino)isonicotinic Acid], the EC50 in data set [1] stood at 0.0066 µM. This compound also came in with a CC50 at 6 days in data set [2] of 28.9 µM.

For the compound `COC(=O)C1=C(C2CCN(c3ncc(C)c(C(=O)O)n3)CC2)NC(c2nccs2)=NC1c1ccc(F)c(F)c1C` (single isomer, unassigned) [II-94-B, 2-(4-(6-(3,4-Difluoro-2-methylphenyl)-5-(methoxycarbonyl)-2-(thiazol-2-yl)-3,6-dihydropyrimidin-4-yl)piperidin-1-yl)-5-methylpyrimidine-4-carboxylic Acid], the EC50 in data set [1] came to 0.0061 µM. The same compound yielded a 50% cytotoxic concentration (CC50) at 6 days in data set [2] of 26.8 µM.

With `COC(=O)C1=C(C2CCN(c3ncc(OC)c(C(=O)O)n3)CC2)NC(c2nccs2)=NC1c1ccc(F)c(F)c1C` (single isomer, unassigned) [II-95-B, 2-(4-(6-(3,4-Difluoro-2-methylphenyl)-5-(methoxycarbonyl)-2-(thiazol-2-yl)-3,6-dihydropyrimidin-4-yl)piperidin-1-yl)-5-methoxypyrimidine-4-carboxylic Acid], the EC50 in data set [1] is 0.0086 µM. For the same compound, in data set [2], half-maximal cytotoxicity (CC50 at 6 days) was put at 25.8 µM.

In the case of `CCOC(=O)C1=C(C2CCN(c3ncc(OCC)c(C(=O)O)n3)CC2)NC(c2nccs2)=NC1c1ccc(F)c(F)c1Cl` (single isomer, unassigned) [II-96-B, 2-(4-(6-(2-chloro-3,4-difluorophenyl)-5-(ethoxycarbonyl)-2-(thiazol-2-yl)-3,6-dihydropyrimidin-4-yl)piperidin-1-yl)-5-ethoxypyrimidine-4-carboxylic Acid], the EC50 in data set [1] is 0.0051 µM. In data set [2], this compound returned a CC50 at 6 days of 16.3 µM.

Consider `CCOC(=O)C1=C(C2CCN(c3ncc(N(C)C)c(C(=O)O)n3)CC2)NC(c2nccs2)=NC1c1cccc(F)c1Br` (single isomer, unassigned) [II-97-B, 2-(4-(6-(2-Bromo-3-fluorophenyl)-5-(ethoxycarbonyl)-2-(thiazol-2-yl)-3,6-dihydropyrimidin-4-yl)piperidin-1-yl)-5-(dimethylamino)pyrimidine-4-carboxylic Acid], for which the EC50 in data set [1] is 0.014 µM. For the same compound, in data set [2], the CC50 at 6 days came out at 27.6 µM.

With `COC(=O)C1=C(C2CCN(c3ncc(C)c(C(=O)O)n3)CC2)NC(c2nccs2)=NC1c1cccc(F)c1Br` (single isomer, unassigned) [II-98-B, 2-(4-(6-(2-Bromo-3-fluorophenyl)-5-(methoxycarbonyl)-2-(thiazol-2-yl)-3,6-dihydropyrimidin-4-yl)piperidin-1-yl)-5-methylpyrimidine-4-carboxylic Acid], the EC50 in data set [1] stood at 0.02 µM. This compound also yielded a CC50 at 6 days in data set [2] of 21.4 µM.

Consider `COC(=O)C1=C(C2CCN(c3ncc(C)c(C(=O)O)n3)CC2)NC(c2nccs2)=NC1c1ccc(F)cc1Br` (single isomer, unassigned) [II-99-B, 2-(4-(6-(2-Bromo-4-fluorophenyl)-5-(methoxycarbonyl)-2-(thiazol-2-yl)-3,6-dihydropyrimidin-4-yl)piperidin-1-yl)-5-methylpyrimidine-4-carboxylic Acid], for which the EC50 in data set [1] amounted to 0.0073 µM. The compound further yielded a CC50 at 6 days in data set [2] of 20.7 µM.

As to `CCOC(=O)C1=C(C2CCN(c3ncc(N(C)C)c(C(=O)O)n3)CC2)NC(c2nccs2)=NC1c1ccc(F)cc1Br` (single isomer, unassigned) [II-100-B, 2-(4-(6-(2-bromo-4-fluorophenyl)-5-(ethoxycarbonyl)-2-(thiazol-2-yl)-3,6-dihydropyrimidin-4-yl)piperidin-1-yl)-5-(dimethylamino)pyrimidine-4-carboxylic Acid], the EC50 in data set [1] was 0.022 µM. In addition, the CC50 at 6 days in data set [2] was 24.5 µM.

As for `COC(=O)C1=C(C2CCN(c3ccc(CCC(=O)O)cn3)CC2)NC(c2nccs2)=NC1c1ccc(F)cc1Cl` (single isomer, unassigned) [II-101-B, 3-(6-(4-(6-(2-Chloro-4-fluorophenyl)-5-(methoxycarbonyl)-2-(thiazol-2-yl)-3,6-dihydropyrimidin-4-yl)piperidin-1-yl)pyridin-3-yl)propanoic Acid], in data set [1], the EC50 was less than 0.0046 µM. It took 16.6 µM to reach half-maximal cytotoxicity in data set [2] (CC50 at 6 days).

Consider `CCOC(=O)Cc1ccnc(N2CCC(C3=C(C(=O)OC)C(c4ccc(F)cc4Cl)N=C(c4nccs4)N3)CC2)n1` (single isomer, unassigned) [XI-13-S, Methyl 4-(2-chloro-4-fluorophenyl)-6-(1-(4-(2-ethoxy-2-oxoethyl)pyrimidin-2-yl)piperidin-4-yl)-2-(thiazol-2-yl)-1,4-dihydropyrimidine-5-carboxylate], for which, in data set [1], the EC50 was found to be 0.15 µM. In data set [2], this compound had a CC50 at 6 days greater than 100 µM.

Regarding `CCOC(=O)C1=C(C2CCN(c3nc(C(=O)OCC)co3)C2)NC(c2nccs2)=NC1c1ccc(F)c(F)c1Cl` (single isomer, unassigned) [XI-85-M, Ethyl 2-(3-(6-(2-chloro-3,4-difluorophenyl)-5-(ethoxycarbonyl)-2-(thiazol-2-yl)-3,6-dihydropyrimidin-4-yl)pyrrolidin-1-yl)oxazole-4-carboxylate], the EC50 in data set [1] was found to be 0.77 µM. In data set [2], this compound displayed a CC50 at 6 days of 11.6 µM.

With `CCOC(=O)C1=C(C2CCC(c3cnn(C(C)CC(=O)O)c3)CC2)NC(c2nccs2)=NC1c1ccc(F)c(F)c1Cl` (stereo not shown) [Compound I-31, 3-(4-(4-(6-(2-Chloro-3,4-difluorophenyl)-5-(ethoxycarbonyl)-2-(thiazol-2-yl)-3,6-dihydropyrimidin-4-yl)cyclohexyl)-1H-pyrazol-1-yl)butanoic Acid], the EC50 in data set [1] is 0.059 µM. Besides, half-maximal cytotoxicity in data set [2] (CC50 at 6 days) was put at 3.78 µM.

Turning to `CCOC(=O)C1=C(C2CCC(c3cnn(C4CC(C(=O)O)C4)c3)CC2)NC(c2nccs2)=NC1c1ccc(F)c(F)c1Cl` (stereo not shown) [Compound I-34, 3-(4-(4-(6-(2-Chloro-3,4-difluorophenyl)-5-(ethoxycarbonyl)-2-(thiazol-2-yl)-3,6-dihydropyrimidin-4-yl)cyclohexyl)-1H-pyrazol-1-yl)cyclobutanecarboxylic acid], the EC50 in data set [1] turned out to be 0.055 µM. Moreover, in data set [2], the CC50 at 6 days came to 2.79 µM.

Source of the values: US11053235B2, “Substituted 1,4-dihydropyrimidines for the treatment of HBV infection or HBV-induced diseases” (Janssen Sciences Ireland Unlimited Company, priority 2018, dated 2021).
